molecular target: ALK kinase (Homo sapiens, UniProt Q9UM73); assay: Test to measure ALK kinase inhibition (GST-PLCγ1 substrate, anti-phosphotyrosine ELISA, luminescence); type: biochemical; details: ALK kinase 180 ng/ml, 250 μM ATP, 30 minutes at 30° C.
Experimental: Test to Measure ALK Kinase Inhibition
A ViewPlate (Packard) is incubated with the GST-PLCγ1 substrate (purified recombinant form) at 0.1 mg/ml in phosphate buffer (PBS pH 7.4)(100 μl/well) for one hour under shaking. The plate is then saturated with a blocking solution containing 5% bovine serum albumin (BSA) (SIGMA) in PBS buffer pH 7.4.
After adding the inhibitor at the desired final concentration (usual range of 30 μM to 10 nM), the reaction is conducted by adding the ALK kinase at 180 ng/ml in 13 mM Tris reaction buffer pH 7.5 (SIGMA); 6.5 mM MgCl2 (MERCK); 0.65 mM DiThioThreitol (DTT) (ACROS); 39 mM sodium β-glycerophosphate (TCI); 0.65 mM sodium orthovanadate (SIGMA) and 250 μM ATP (SIGMA). Incubation is carried out for 30 minutes at 30° C. under shaking.
After three washings under shaking in 0.1% PBS/Tween-20 buffer (SIGMA), an anti-phosphotyrosine antibody coupled with HRP (UBI) diluted to 1/1000th in PBS/BSA buffer 5 mg/ml, is incubated for one hour under shaking. After three further washings in 0.1% PBS/Tween-20, the wells are incubated two minutes with 100 μl of SuperSignal ELISA mixture (PIERCE).
The signal is read in luminescent mode using a luminometer (MOLECULAR DEVICES SpectraMax M5e).

Sequence of ALK kinase (Q9UM73 19-1620): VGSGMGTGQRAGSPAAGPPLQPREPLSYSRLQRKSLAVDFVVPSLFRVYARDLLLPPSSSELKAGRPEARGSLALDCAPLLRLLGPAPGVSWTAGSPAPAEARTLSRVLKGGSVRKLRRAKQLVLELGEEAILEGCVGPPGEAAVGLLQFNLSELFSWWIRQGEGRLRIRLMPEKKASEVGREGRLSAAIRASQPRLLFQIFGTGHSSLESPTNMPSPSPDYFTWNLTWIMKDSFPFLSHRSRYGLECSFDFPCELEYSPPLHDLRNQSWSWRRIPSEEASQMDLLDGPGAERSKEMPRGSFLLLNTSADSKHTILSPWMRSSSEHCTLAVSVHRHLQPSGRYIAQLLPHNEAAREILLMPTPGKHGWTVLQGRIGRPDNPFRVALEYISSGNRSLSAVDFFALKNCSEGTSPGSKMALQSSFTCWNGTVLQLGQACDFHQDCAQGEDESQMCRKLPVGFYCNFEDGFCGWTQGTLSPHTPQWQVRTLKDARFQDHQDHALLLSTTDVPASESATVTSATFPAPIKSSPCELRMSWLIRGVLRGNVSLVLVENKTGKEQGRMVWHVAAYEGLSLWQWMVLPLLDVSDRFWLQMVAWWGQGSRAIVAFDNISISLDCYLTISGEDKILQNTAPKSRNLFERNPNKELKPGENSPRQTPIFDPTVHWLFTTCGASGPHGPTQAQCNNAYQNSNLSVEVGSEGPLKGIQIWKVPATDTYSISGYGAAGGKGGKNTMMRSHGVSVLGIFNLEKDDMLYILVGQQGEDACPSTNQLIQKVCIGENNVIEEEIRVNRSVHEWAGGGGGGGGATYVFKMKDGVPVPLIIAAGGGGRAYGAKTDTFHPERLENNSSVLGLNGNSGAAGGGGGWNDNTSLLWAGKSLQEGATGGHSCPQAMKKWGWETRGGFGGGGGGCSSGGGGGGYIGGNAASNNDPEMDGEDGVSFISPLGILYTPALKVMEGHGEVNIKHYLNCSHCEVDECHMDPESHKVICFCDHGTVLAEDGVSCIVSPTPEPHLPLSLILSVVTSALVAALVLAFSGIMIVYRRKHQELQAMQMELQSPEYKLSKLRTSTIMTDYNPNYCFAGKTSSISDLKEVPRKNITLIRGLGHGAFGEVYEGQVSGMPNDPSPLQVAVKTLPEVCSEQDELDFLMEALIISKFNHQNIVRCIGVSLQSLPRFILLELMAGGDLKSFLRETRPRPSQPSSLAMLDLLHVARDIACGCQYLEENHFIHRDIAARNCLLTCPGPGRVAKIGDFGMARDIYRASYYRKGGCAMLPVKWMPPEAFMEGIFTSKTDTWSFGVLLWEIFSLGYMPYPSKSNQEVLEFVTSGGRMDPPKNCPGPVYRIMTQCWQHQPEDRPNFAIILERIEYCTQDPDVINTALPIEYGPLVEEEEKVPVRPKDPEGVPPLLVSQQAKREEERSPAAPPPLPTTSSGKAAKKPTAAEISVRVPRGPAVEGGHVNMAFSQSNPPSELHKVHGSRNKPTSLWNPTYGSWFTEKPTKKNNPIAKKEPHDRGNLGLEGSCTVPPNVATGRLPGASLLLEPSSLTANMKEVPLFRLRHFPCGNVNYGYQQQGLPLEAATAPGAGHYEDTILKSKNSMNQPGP

SMILES | IC50 [nM]
N#Cc1c(-c2ccc(O)cc2F)nc2[nH]nc(-c3ccco3)c2c1-c1ccc(N2CCNCC2)cc1 [Compound 197] | < 100
COc1cc(-c2c(C#N)c(-c3ccc(O)cc3F)nc3[nH]nc(N)c23)ccc1N1CCNCC1 [Compound 202] | 100 to 1000
N#Cc1c(-c2ccc(O)cc2F)nc2[nH]nc(N)c2c1-c1ccc(OCCCN2CCCCC2)cc1 [Compound 203] | 100 to 1000
Cc1n[nH]c2nc(-c3ccc(O)cc3F)c(C#N)c(-c3ccc(N4CCNCC4)s3)c12 [Compound 204] | < 100
N#Cc1c(-c2ccc(O)cc2F)nc2[nH]nc(-c3ccccc3)c2c1-c1ccc(N2CCNCC2)cc1 [Compound 206] | < 100
Cc1n[nH]c2nc(-c3ccc(O)cc3F)c(C#N)c(-c3ccc(N4CCNCC4)c([N+](=O)[O-])c3)c12 [Compound 209] | 100 to 1000
CN(C)CCOc1ccc(-c2c(C#N)c(-c3ccc(O)cc3F)nc3[nH]nc(N)c23)cc1 [Compound 210] | 100 to 1000
Cc1n[nH]c2nc(-c3ccc(O)cc3F)c(C#N)c(-c3ccc(OCCCN4CCNCC4)cc3)c12 [Compound 213] | < 100
COC(=O)c1c(-c2ccc(O)cc2)nc2[nH]nc(C)c2c1-c1ccc(C)o1 [Compound 215] | < 100
Cc1n[nH]c2nc(-c3cc(Cl)ccc3F)c(C#N)c(-c3ccc(N4CCNCC4)cc3)c12 [Compound 217] | 1000 to 10000
N#Cc1c(-c2ccc(O)cc2F)nc2[nH]nc(-c3ccc(F)cc3)c2c1-c1ccc(N2CCNCC2)cc1 [Compound 218] | < 100
N#Cc1c(-c2ccccc2)nc2[nH]nc(-c3cccs3)c2c1-c1ccc(N2CCNCC2)cc1 [Compound 219] | 1000 to 10000
Cc1n[nH]c2nc(-c3ccc(O)cc3F)c(C#N)c(-c3ccc(N4CCNCC4)c(N)c3)c12 [Compound 226] | 100 to 1000
Cc1n[nH]c2nc(-c3c(F)ccc(Cl)c3F)c(C#N)c(-c3ccc(N4CCNCC4)cc3)c12 [Compound 228] | 100 to 1000
CC(C)(C)c1n[nH]c2nc(-c3ccc(O)cc3F)c(C#N)c(-c3ccc(N4CCNCC4)cc3)c12 [Compound 230] | 100 to 1000
N#Cc1c(-c2cccc(O)c2)nc2[nH]nc(-c3cccs3)c2c1-c1ccc(N2CCNCC2)cc1 [Compound 231] | 1000 to 10000
N#Cc1c(-c2cc3cc[nH]c3cc2F)nc2[nH]nc(N)c2c1-c1ccc(N2CCNCC2)cc1 [Compound 233] | 100 to 1000

Results, then the molecule that gave them:

IC50 [nM] | SMILES
< 100 | COc1ccc(-c2n[nH]c3nc(-c4ccc(O)cc4F)c(C#N)c(-c4ccc(N5CCNCC5)cc4)c23)cc1 [Compound 198]
< 100 | N#Cc1c(-c2cc(Cl)c(O)cc2F)nc2[nH]nc(N)c2c1-c1ccc(N2CCNCC2)cc1 [Compound 199]
< 100 | N#Cc1c(-c2ccc(O)cc2F)nc2[nH]nc(N)c2c1-c1ccc(N2CCC(N3CCCC3)CC2)cc1 [Compound 200]
< 100 | N#Cc1c(-c2ccc(O)cc2F)nc2[nH]nc(-c3ccncc3)c2c1-c1ccc(N2CCNCC2)cc1 [Compound 201]
1000 to 10000 | Cc1n[nH]c2nc(-c3ccc(NS(C)(=O)=O)cc3F)c(C#N)c(-c3ccc(N4CCNCC4)cc3)c12 [Compound 208]
100 to 1000 | N#Cc1c(-c2ccc(O)cc2F)nc2[nH]nc(N)c2c1-c1ccc(OCCCN2CCNCC2)cc1 [Compound 211]
1000 to 10000 | N#Cc1c(-c2c(F)ccc(F)c2F)nc2[nH]nc(N)c2c1-c1ccc(N2CCNCC2)cc1 [Compound 212]
100 to 1000 | N#Cc1c(-c2c(F)ccc(F)c2F)nc2[nH]nc(-c3cccs3)c2c1-c1ccc(N2CCNCC2)cc1 [Compound 221]
1000 to 10000 | CNc1ccc(-c2nc3[nH]nc(C)c3c(-c3ccc(N4CCNCC4)cc3)c2C#N)c(F)c1 [Compound 222]
< 100 | CCOC(=O)c1c(-c2ccc(O)cc2)nc2[nH]nc(C)c2c1-c1ccc(C)o1 [Compound 223]

test system: karpas 299 cells; assay: Measurement of inhibition of cell proliferation (Karpas), ATPlite; type: cell-based; details: Homo sapiens, KARPAS-299, 72 h
Experimental: Measurement of Inhibition of Cell Proliferation (Karpas):
The antiproliferative activities of the compounds were measured using the ATPlite technique (Perkin Elmer).
The non-adhering cells (karpas 299) are seeded in 96-well plates (300 000 cells/ml) on Day 1 at a concentration compatible with logarithmic growth for 72 hours required for evaluation of the compounds. All the cells are treated on Day 1, then placed in an incubator at 37° C. under 5% CO2 atmosphere. Cell viability is evaluated on Day 4 by assay of released ATP, characteristic of viable cells. The IC50 values are determined by non-linear regression on the basis of a sigmoid model of dose/response relationship, Hill's slope coefficient being left variable, performed using GraphPad software sequence with the supplied algorithm.

SMILES | IC50 [nM]
N#Cc1c(-c2ccc(O)cc2F)nc2[nH]nc(-c3ccco3)c2c1-c1ccc(N2CCNCC2)cc1 [Compound 197] | 100 to 1000
COc1cc(-c2c(C#N)c(-c3ccc(O)cc3F)nc3[nH]nc(N)c23)ccc1N1CCNCC1 [Compound 202] | > 10000
N#Cc1c(-c2ccc(O)cc2F)nc2[nH]nc(N)c2c1-c1ccc(OCCCN2CCCCC2)cc1 [Compound 203] | 1000 to 10000
Cc1n[nH]c2nc(-c3ccc(O)cc3F)c(C#N)c(-c3ccc(N4CCNCC4)s3)c12 [Compound 204] | 100 to 1000
N#Cc1c(-c2ccc(O)cc2F)nc2[nH]nc(-c3ccccc3)c2c1-c1ccc(N2CCNCC2)cc1 [Compound 206] | 100 to 1000
Cc1n[nH]c2nc(-c3ccc(O)cc3F)c(C#N)c(-c3ccc(N4CCNCC4)c([N+](=O)[O-])c3)c12 [Compound 209] | 1000 to 10000
CN(C)CCOc1ccc(-c2c(C#N)c(-c3ccc(O)cc3F)nc3[nH]nc(N)c23)cc1 [Compound 210] | 1000 to 10000
Cc1n[nH]c2nc(-c3ccc(O)cc3F)c(C#N)c(-c3ccc(OCCCN4CCNCC4)cc3)c12 [Compound 213] | 1000 to 10000
COC(=O)c1c(-c2ccc(O)cc2)nc2[nH]nc(C)c2c1-c1ccc(C)o1 [Compound 215] | 100 to 1000
Cc1n[nH]c2nc(-c3cc(Cl)ccc3F)c(C#N)c(-c3ccc(N4CCNCC4)cc3)c12 [Compound 217] | 1000 to 10000
N#Cc1c(-c2ccc(O)cc2F)nc2[nH]nc(-c3ccc(F)cc3)c2c1-c1ccc(N2CCNCC2)cc1 [Compound 218] | 1000 to 10000
N#Cc1c(-c2ccccc2)nc2[nH]nc(-c3cccs3)c2c1-c1ccc(N2CCNCC2)cc1 [Compound 219] | 1000 to 10000
Cc1n[nH]c2nc(-c3ccc(O)cc3F)c(C#N)c(-c3ccc(N4CCNCC4)c(N)c3)c12 [Compound 226] | 1000 to 10000
Cc1n[nH]c2nc(-c3c(F)ccc(Cl)c3F)c(C#N)c(-c3ccc(N4CCNCC4)cc3)c12 [Compound 228] | 1000 to 10000
CC(C)(C)c1n[nH]c2nc(-c3ccc(O)cc3F)c(C#N)c(-c3ccc(N4CCNCC4)cc3)c12 [Compound 230] | 1000 to 10000
N#Cc1c(-c2cccc(O)c2)nc2[nH]nc(-c3cccs3)c2c1-c1ccc(N2CCNCC2)cc1 [Compound 231] | 1000 to 10000
N#Cc1c(-c2cc3cc[nH]c3cc2F)nc2[nH]nc(N)c2c1-c1ccc(N2CCNCC2)cc1 [Compound 233] | > 10000

Continued, values first:

IC50 [nM] | SMILES
100 to 1000 | COc1ccc(-c2n[nH]c3nc(-c4ccc(O)cc4F)c(C#N)c(-c4ccc(N5CCNCC5)cc4)c23)cc1 [Compound 198]
> 10000 | N#Cc1c(-c2cc(Cl)c(O)cc2F)nc2[nH]nc(N)c2c1-c1ccc(N2CCNCC2)cc1 [Compound 199]
100 to 1000 | N#Cc1c(-c2ccc(O)cc2F)nc2[nH]nc(N)c2c1-c1ccc(N2CCC(N3CCCC3)CC2)cc1 [Compound 200]
> 10000 | N#Cc1c(-c2ccc(O)cc2F)nc2[nH]nc(-c3ccncc3)c2c1-c1ccc(N2CCNCC2)cc1 [Compound 201]
> 10000 | Cc1n[nH]c2nc(-c3ccc(NS(C)(=O)=O)cc3F)c(C#N)c(-c3ccc(N4CCNCC4)cc3)c12 [Compound 208]
> 10000 | N#Cc1c(-c2ccc(O)cc2F)nc2[nH]nc(N)c2c1-c1ccc(OCCCN2CCNCC2)cc1 [Compound 211]
> 10000 | N#Cc1c(-c2c(F)ccc(F)c2F)nc2[nH]nc(N)c2c1-c1ccc(N2CCNCC2)cc1 [Compound 212]
1000 to 10000 | N#Cc1c(-c2c(F)ccc(F)c2F)nc2[nH]nc(-c3cccs3)c2c1-c1ccc(N2CCNCC2)cc1 [Compound 221]
> 10000 | CNc1ccc(-c2nc3[nH]nc(C)c3c(-c3ccc(N4CCNCC4)cc3)c2C#N)c(F)c1 [Compound 222]
100 to 1000 | CCOC(=O)c1c(-c2ccc(O)cc2)nc2[nH]nc(C)c2c1-c1ccc(C)o1 [Compound 223]
